In PubChem BioAssay (NCI):
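Five concentrations, 48 hours, 96-well plates. At the GI50, growth is halved. Definition used: TGI = concentration required for complete inhibition of growth.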

How the values were obtained:
Assay in all cases: NCI-60 cell line screen, 48 h
786-0 renal = test system: 786-0 renal
A498 renal = test system: A498 renal
A549 NSCLC = test system: A549 NSCLC
ACHN renal = test system: ACHN renal
BT-549 breast = test system: BT-549 breast
CAKI-1 renal = test system: CAKI-1 renal
CCRF-CEM leukemia = test system: CCRF-CEM leukemia
COLO 205 colon = test system: COLO 205 colon
DU-145 prostate = test system: DU-145 prostate
EKVX NSCLC = test system: EKVX NSCLC
HCC-2998 colon = test system: HCC-2998 colon
HCT-116 colon = test system: HCT-116 colon
HCT-15 colon = test system: HCT-15 colon
HL-60(TB) leukemia = test system: HL-60(TB) leukemia
HOP-62 NSCLC = test system: HOP-62 NSCLC
HOP-92 NSCLC = test system: HOP-92 NSCLC
HS 578T breast = test system: HS 578T breast
HT29 colon = test system: HT29 colon
IGROV1 ovarian = test system: IGROV1 ovarian
K-562 leukemia = test system: K-562 leukemia
KM12 colon = test system: KM12 colon
LOX IMVI melanoma = test system: LOX IMVI melanoma
M14 melanoma = test system: M14 melanoma
MALME-3M melanoma = test system: MALME-3M melanoma
MCF7 breast = test system: MCF7 breast
MDA-MB-231 breast = test system: MDA-MB-231 breast
MDA-MB-435 = test system: MDA-MB-435
MOLT-4 leukemia = test system: MOLT-4 leukemia
NCI-H226 lung = test system: NCI-H226 lung
NCI-H460 lung = test system: NCI-H460 lung
NCI-H522 lung = test system: NCI-H522 lung
NCI/ADR-RES ovarian = test system: NCI/ADR-RES ovarian
OVCAR-3 ovarian = test system: OVCAR-3 ovarian
OVCAR-4 ovarian = test system: OVCAR-4 ovarian
OVCAR-5 ovarian = test system: OVCAR-5 ovarian
OVCAR-8 ovarian = test system: OVCAR-8 ovarian
PC-3 prostate = test system: PC-3 prostate
RPMI-8226 leukemia = test system: RPMI-8226 leukemia
RXF 393 renal = test system: RXF 393 renal
SF-268 CNS = test system: SF-268 CNS
SF-295 CNS = test system: SF-295 CNS
SF-539 CNS = test system: SF-539 CNS
SK-MEL-2 melanoma = test system: SK-MEL-2 melanoma
SK-MEL-28 melanoma = test system: SK-MEL-28 melanoma
SK-MEL-5 melanoma = test system: SK-MEL-5 melanoma
SK-OV-3 ovarian = test system: SK-OV-3 ovarian
SN12C renal = test system: SN12C renal
SNB-19 CNS = test system: SNB-19 CNS
SNB-75 CNS = test system: SNB-75 CNS
SR leukemia = test system: SR leukemia
SW-620 colon = test system: SW-620 colon
T-47D breast = test system: T-47D breast
TK-10 renal = test system: TK-10 renal
U251 CNS = test system: U251 CNS
UACC-257 melanoma = test system: UACC-257 melanoma
UACC-62 melanoma = test system: UACC-62 melanoma
UO-31 renal = test system: UO-31 renal

CNC(=O)c1cc(-c2ccc(NC(=O)Nc3ccc(N4CCN(C)CC4)c(C(F)(F)F)c3)cc2)nc2cccnc12
GI50 (786-0 renal): 1.81 µM | TGI (786-0 renal): 3.52 µM | GI50 (A498 renal): > 100 µM | TGI (A498 renal): > 100 µM | GI50 (A549 NSCLC): 10.9 µM | TGI (A549 NSCLC): 24.3 µM | GI50 (ACHN renal): 15.5 µM | TGI (ACHN renal): 28.9 µM | GI50 (BT-549 breast): 16.5 µM | TGI (BT-549 breast): 35.3 µM | GI50 (CAKI-1 renal): 16.1 µM | TGI (CAKI-1 renal): 29.6 µM | GI50 (CCRF-CEM leukemia): 3.16 µM | TGI (CCRF-CEM leukemia): 74.2 µM | GI50 (COLO 205 colon): 16.8 µM | TGI (COLO 205 colon): 32.8 µM | GI50 (DU-145 prostate): 17.6 µM | TGI (DU-145 prostate): 35.6 µM | GI50 (EKVX NSCLC): 17.9 µM | TGI (EKVX NSCLC): 33.9 µM | GI50 (HCC-2998 colon): 18 µM | TGI (HCC-2998 colon): 34.6 µM | GI50 (HCT-116 colon): 4.09 µM | TGI (HCT-116 colon): 75.6 µM | GI50 (HCT-15 colon): 2.07 µM | TGI (HCT-15 colon): 4.33 µM | GI50 (HL-60(TB) leukemia): 16.1 µM | TGI (HL-60(TB) leukemia): 38.7 µM | GI50 (HOP-62 NSCLC): 16.4 µM | TGI (HOP-62 NSCLC): 32.2 µM | GI50 (HOP-92 NSCLC): 6.54 µM | TGI (HOP-92 NSCLC): > 100 µM | GI50 (HS 578T breast): 15 µM | TGI (HS 578T breast): 38.9 µM | GI50 (HT29 colon): 1.92 µM | TGI (HT29 colon): 4.19 µM | GI50 (IGROV1 ovarian): 17.7 µM | TGI (IGROV1 ovarian): 36.6 µM | GI50 (K-562 leukemia): 2.12 µM | TGI (K-562 leukemia): 5.35 µM | GI50 (KM12 colon): 17.4 µM | TGI (KM12 colon): 43.3 µM | GI50 (LOX IMVI melanoma): 0.656 µM | TGI (LOX IMVI melanoma): 24.5 µM | GI50 (M14 melanoma): 1.79 µM | TGI (M14 melanoma): 3.71 µM | GI50 (MALME-3M melanoma): 1.68 µM | TGI (MALME-3M melanoma): 3.21 µM | GI50 (MCF7 breast): 1.67 µM | TGI (MCF7 breast): 3.45 µM | GI50 (MDA-MB-231 breast): 17.5 µM | TGI (MDA-MB-231 breast): 38.1 µM | GI50 (MDA-MB-435): 1.75 µM | TGI (MDA-MB-435): 3.27 µM | GI50 (MOLT-4 leukemia): 2.79 µM | TGI (MOLT-4 leukemia): 14.9 µM | GI50 (NCI-H226 lung): 18 µM | TGI (NCI-H226 lung): 39.7 µM | GI50 (NCI-H460 lung): 3.19 µM | TGI (NCI-H460 lung): 10.2 µM | GI50 (NCI-H522 lung): 16.5 µM | TGI (NCI-H522 lung): 31.1 µM | GI50 (NCI/ADR-RES ovarian): 14.2 µM | TGI (NCI/ADR-RES ovarian): 45.4 µM | GI50 (OVCAR-3 ovarian): 9.59 µM | TGI (OVCAR-3 ovarian): 25.8 µM | GI50 (OVCAR-4 ovarian): 15.7 µM | TGI (OVCAR-4 ovarian): 31.6 µM | GI50 (OVCAR-5 ovarian): 15.6 µM | TGI (OVCAR-5 ovarian): 29 µM | GI50 (OVCAR-8 ovarian): 17.4 µM | TGI (OVCAR-8 ovarian): 35.4 µM | GI50 (PC-3 prostate): 15.1 µM | TGI (PC-3 prostate): 30.1 µM | GI50 (RPMI-8226 leukemia): 3.85 µM | TGI (RPMI-8226 leukemia): 25 µM | GI50 (RXF 393 renal): 3.38 µM | TGI (RXF 393 renal): 15 µM | GI50 (SF-268 CNS): 17.5 µM | TGI (SF-268 CNS): 39.2 µM | GI50 (SF-295 CNS): 18 µM | TGI (SF-295 CNS): 36.9 µM | GI50 (SF-539 CNS): 13.6 µM | TGI (SF-539 CNS): 26.5 µM | GI50 (SK-MEL-2 melanoma): > 100 µM | TGI (SK-MEL-2 melanoma): > 100 µM | GI50 (SK-MEL-28 melanoma): 1.67 µM | TGI (SK-MEL-28 melanoma): 3.11 µM | GI50 (SK-MEL-5 melanoma): 17.5 µM | TGI (SK-MEL-5 melanoma): 31.7 µM | GI50 (SK-OV-3 ovarian): 18.5 µM | TGI (SK-OV-3 ovarian): 34.7 µM | GI50 (SN12C renal): 16.7 µM | TGI (SN12C renal): 34.7 µM | GI50 (SNB-19 CNS): 16.9 µM | TGI (SNB-19 CNS): 33.2 µM | GI50 (SNB-75 CNS): 14.9 µM | TGI (SNB-75 CNS): 28.4 µM | GI50 (SR leukemia): 9.97 µM | TGI (SR leukemia): 44.6 µM | GI50 (SW-620 colon): 2.11 µM | TGI (SW-620 colon): 4.62 µM | GI50 (T-47D breast): 17 µM | TGI (T-47D breast): 43.4 µM | GI50 (TK-10 renal): 18.5 µM | TGI (TK-10 renal): 33.3 µM | GI50 (U251 CNS): 3.43 µM | TGI (U251 CNS): 14.7 µM | GI50 (UACC-257 melanoma): 15.3 µM | TGI (UACC-257 melanoma): 28.8 µM | GI50 (UACC-62 melanoma): 18.4 µM | TGI (UACC-62 melanoma): 33.9 µM | GI50 (UO-31 renal): 15.3 µM | TGI (UO-31 renal): 29.2 µM
